Results taken from patent US6451972B1, “Peptido-mimetic compounds containing RGD sequence useful as integrin inhibitors” (Sigma-Tau Industrie Farmaceutiche Riunite S.p.A., priority 1998, dated 2002).

Experiments:
[1] = test system: HMEC cells adhesion to Vitronectin; test: Adhesion assay on vitronectin, HMEC cells; assay type: cell-based
Experimental: (§1) Ninety-six-well plates (Falcon) were coated with either fibronectin or vitronectin (both at […] in phosphate buffered saline) overnight at 4° C. Cells were detached using EDTA (1 mM)/trypsine (0.25%) and resuspended in own medium described above. Approximately 40,000 cells/[…] were applied for each well and allowed to adhere for 60 min at 37° C. in presence of different amounts of RGD peptides. For all experiments the non-adherent cells were removed with PBS and the remaining cells were fixed with 4% paraformaldehyde for 10 min.
(§2) Cells were stained with 1% toluidine blue for 10 min and rinsed with water.
(§3) Stained cells were solubilized with 1% SDS and quantified on a microtiter plate reader at 600 nm.
Experiments described were performed in quadruplicate and repeated a minimum of three times.
To asses the ability of ST1646 peptide to compete with vitronectin in adhesion assay also on other cells type, we performed this experiment using microvascular endothelial cells (HMEC), human prostate carcinoma cells (PC3) and murine lung carcinoma cells (M109). Table 6 (a, b and c) show a good activity of the ST1646 peptide in inhibiting adhesion of all cells type. […]
(§4) The percentages of adhesion inhibition refer to 1.5 μM concentration of each peptide and were calculated by the following formula (control-sample/control×100) where control was RGD untreated sample.

[2] = test system: bovine microvascular endothelial cells (BMEC) adhesion to Fibronectin; test: Adhesion inhibition of BMEC to fibronectin; assay type: cell-based
Experimental: (§5) Bovine microvascular endothelial cells (BMEC) were maintained in DMEM supplemented with 20% foetal calf serum, 50 units/ml heparin, 50 μg/ml bovine brain extract, 100 units/ml gentamycin.
(§6) BMEC were cultured on 1% gelatine-coated culture flasks and employed in experiments between passage 6-12.
as §1, §2, §3
(§7) Experiments described were performed in quadruplicate and repeated a minimum of three times. […]
(§8) The percentages of adhesion inhibition refer to 100 μM concentration of each peptide of and it's calculated by the following formula (control-sample/control×100) where control was RGD untreated sample. […] The t-test has been calculated, using the Mann Witney non parametric test, by the instat program. […]

[3] = test system: murine lung carcinoma cells (M109) adhesion to Vitronectin; test: Adhesion assay on vitronectin, M109 cells; assay type: cell-based
Experimental: Murine lung carcinoma cells (M109) were purchased from American Type Collection Culture (ATCC) and maintained in RPMI supplemented with 10% foetal calf serum, 10 mM L-glutamine and 100 units/ ml gentamicin.
as §1, §2, §3, §7, §4
The t-test has been calculated using the Mann Witney non parametric test, by the instat program. […]

[4] = test system: human prostate carcinoma cells (PC3) adhesion to Vitronectin; test: Adhesion assay on vitronectin, PC3 cells; assay type: cell-based
Experimental: Human prostate carcinoma cells (PC3) were purchased from American Type Collection Culture (ATCC) and maintained in RPMI supplemented with 10% foetal calf serum, 10 mM L-glutamine, 1% sodium piruvate and 100 units/ml gentamicin.
as §1, §2, §3, §7, §4

M109 lung carcinoma = test: Antitumor and antimetastatic activity on M109 lung carcinoma-bearing Balb/c mice; assay type: in vivo; conditions: 200 μg/mouse (10 mg/kg) i.p. qdx9; lung metastases at day 16; untreated group 34
Experimental: Balb/c mice were injected i.m. with M109 lung carcinoma cells (3×10^5 cells/mouse) into the hind leg muscle.
Tumors were excised at day 10th after tumor implant. Mice were sacrificed at day 16th from tumor implant and lungs were removed. The number of lung metastases has been evaluated on tumor-excised mice (3 mice/group) using a dissecting microscope.
TVI % (tumor volume inhibition)=100−[(mean tumor weight of treated group/mean tumor weight of control group)×100]. Calculated on day 16th after tumor implant (just before mice sacrifice) on nonoperated mice.

[5] = test system: bovine microvascular endothelial cells (BMEC) adhesion to Vitronectin; test: Adhesion inhibition of BMEC to vitronectin; assay type: cell-based
Experimental: as §5, §6, §1, §2, §3, §7
as §8, with “µM” for “μM”

## CC(C)[C@@H]1NC(=O)[C@@H](Cc2ccccc2)NC(=O)[C@H](CC(=O)O)NC(=O)CNC(=O)[C@H](CCCNC(=N)N)NC1=O [KESSLER, cyclo (Arg-Gly-Asp-D-Phe-Val)]
[1]; 1.5 μM peptide
  % Inhibition: 39%
[1]; average of 3 experiments
  IC50: 4.23 ± 0.31 µM
[2]; BMEC on fibronectin, 100 μM concentration of each peptide, mean of 4 samples
  % Inhibition: 30%
[2]; BMEC, fibronectin-coated plates, 100 to 0.6 μM tested, ± SD
  IC50: > 100 µM
[3]; 1.5 μM peptide
  % Inhibition: 70%
[3]; average of 3 experiments
  IC50: 0.46 ± 0.5 µM
[4]; 1.5 μM peptide
  % Inhibition: 69%
[4]; average of 3 experiments
  IC50: 2.5 ± 0.2 µM
M109 lung carcinoma
  Mean no. of metastases: 23
[5]; BMEC on vitronectin, 100 µM concentration of each peptide, mean of 4 samples
  % Inhibition: 96%
[5]; BMEC, vitronectin-coated plates, 100 to 0.6 μM tested, ± SD
  IC50: 7.8 ± 1.2 µM
